# According to ChEMBL document CHEMBL5584257, “Semisynthetic derivatives of the fungal metabolite eupenifeldin via targeting the tropolone hydroxy groups” (Bioorg Med Chem Lett, 2024):
# How the values were obtained:
# [1] = Relative solubility of compound by measuring ratio of solubility of compound to solubility of Eupenifeldin; type: physicochemical
# OVCAR-3 = assay: Cytotoxicity against human OVCAR-3 cells treated for 72 hrs; type: functional, cell-based; conditions: OVCAR-3, 72 h
# MDA-MB-435 = assay: Cytotoxicity against human MDA-MB-435 cells treated for 72 hrs; type: functional, cell-based; conditions: MDA-MB-435, 72 h
# [2] = Lipophilicity, logD of compound at pH 7.4; type: physicochemical; conditions: buffer
# [3] = Aqueous solubility of compound; type: physicochemical; conditions: buffer
SMILES,Ratio [1],logD ([2]; read-out: logD),logD [2],solubility [3],IC50 (OVCAR-3),IC50 (MDA-MB-435)
Cc1cc(=O)c(OC(=O)N(c2ccccc2)c2ccccc2)cc2c1C[C@H]1C[C@H](O)[C@@]3(C)Oc4cc(OC(=O)N(c5ccccc5)c5ccccc5)c(=O)ccc4C[C@H]3CC(C)(C)/C=C/C[C@]1(C)O2,,,9.8,,228 nM,> 250 nM
CC(=O)Oc1cc2c(ccc1=O)C[C@H]1CC(C)(C)/C=C/C[C@]3(C)Oc4cc(OC(C)=O)c(=O)cc(C)c4C[C@H]3C[C@H](OC(C)=O)[C@@]1(C)O2,4 10^-2No_unit,5.5,,,193 nM,72 nM
COCCOC(=O)Oc1cc2c(c(C)cc1=O)C[C@H]1C[C@H](O)[C@@]3(C)Oc4cc(O)c(=O)ccc4C[C@H]3CC(C)(C)/C=C/C[C@]1(C)O2,0.4,4.3,,,76 nM,31 nM
Cc1cc(=O)c(OCc2ccccc2)cc2c1C[C@H]1C[C@H](O)[C@@]3(C)Oc4cc(OCc5ccccc5)c(=O)ccc4C[C@H]3CC(C)(C)/C=C/C[C@]1(C)O2,2 10^-4No_unit,7.5,,,> 250 nM,97 nM
COCCOC(=O)Oc1cc2c(ccc1=O)C[C@H]1CC(C)(C)/C=C/C[C@]3(C)Oc4cc(OC(=O)OCCOC)c(=O)cc(C)c4C[C@H]3C[C@H](O)[C@@]1(C)O2,0.2,4.6,,,> 250 nM,101 nM
Cc1cc(=O)c(O)cc2c1C[C@H]1C[C@H](OC(=O)CCC(=O)O)[C@@]3(C)Oc4cc(O)c(=O)ccc4C[C@H]3CC(C)(C)/C=C/C[C@]1(C)O2,40,1,,66.3 µg/mL,157 nM,441 nM
CC(=O)O[C@H]1C(=O)[C@@]2(C)[C@H]([C@H](OC(=O)c3ccccc3)[C@]3(O)C[C@H](OC(=O)[C@H](O)[C@@H](NC(=O)c4ccccc4)c4ccccc4)C(C)=C1C3(C)C)[C@]1(OC(C)=O)CO[C@@H]1C[C@@H]2O [PACLITAXEL],,,,,0.1 nM,

# Now from value to compound, other results behind:
Ratio [1],logD ([2]; read-out: logD),logD [2],solubility [3],SMILES,IC50 (OVCAR-3),IC50 (MDA-MB-435)
5 10^-3No_unit,5.3,,,Cc1cc(=O)c(OC(=O)C2CC2)cc2c1C[C@H]1C[C@H](O)[C@@]3(C)Oc4cc(OC(=O)C5CC5)c(=O)ccc4C[C@H]3CC(C)(C)/C=C/C[C@]1(C)O2,> 250 nM,77 nM
6 10^-3No_unit,6.9,,,Cc1cc(=O)c(OC(=O)C(C)(C)C)cc2c1C[C@H]1C[C@H](O)[C@@]3(C)Oc4cc(OC(=O)C(C)(C)C)c(=O)ccc4C[C@H]3CC(C)(C)/C=C/C[C@]1(C)O2,141 nM,80 nM
2 10^-2No_unit,5.9,,,CCN(CC)C(=O)Oc1cc2c(ccc1=O)C[C@H]1CC(C)(C)/C=C/C[C@]3(C)Oc4cc(OC(=O)N(CC)CC)c(=O)cc(C)c4C[C@H]3C[C@H](O)[C@@]1(C)O2,189 nM,> 250 nM
0.1,4.6,,,CC(=O)Oc1cc2c(ccc1=O)C[C@H]1CC(C)(C)/C=C/C[C@]3(C)Oc4cc(OC(C)=O)c(=O)cc(C)c4C[C@H]3C[C@H](O)[C@@]1(C)O2,> 250 nM,53 nM
